Values quoted from earlier work, collected in US9302241B2, “Method of preparing lipid nanoparticles” (UNIVERSITE D'ANGERS, priority 2008, dated 2016).

Settings: concentration of Fondaparinux in its brand form Arixtra

solubility in water: greater than 12.5 mg/ml
Substance: Fondaparinux
